≈ marks a conversion by molar mass, not a printed value. Like-named read-outs stand apart in the source and are kept apart here.
Key:
whole cell M. smegmatis = details: cited from earlier work
[1] = test system: cytochrome bd knockout strain of M. smegmatis; details: cited from earlier work
[2] = test system: M. tuberculosis H37Rv-ΔcydAB; assay: microbe, parasite or virus in culture; assay type: cell-based; details: Mycobacterium tuberculosis; for MIC50: 120 h
[3] = test system: isolated membranes from M. smegmatis; details: cited from earlier work
[4] = test system: isolated membranes from M. tuberculosis; details: cited from earlier work
[5] = test system: M. tuberculosis H37Rv-ΔcydAB; set-up: species or system mouse (Balb/cBy); details: mouse, in vivo, 25 mg/kg
[6] = test system: membranes from M. smegmatis cytochrome bc knockout strain (ΔqcrCAB); assay type: biochemical
M. tuberculosis Erdman = assay: MIC determination, agar dilution method; assay type: cell-based
[7] = test system: membranes from M. smegmatis cytochrome bd knockout strain (ΔcydAB); assay type: biochemical; details: read-out: IC50 oxygen consumption
[8] = test system: M. tuberculosis H37Rv Pasteur; assay: MIC determination, agar dilution method; assay type: cell-based
[9] = test system: membranes from M. smegmatis wild-type strain MC2155; assay type: biochemical; details: read-out: IC50 oxygen consumption

Row | Compound | MIC (whole cell M. smegmatis) [nM] | MIC [1] | MIC [2] [nM] | MIC50 [2] [nM] | IC50 [3] [µM] | IC50 [4] [µM] | reduction in bacterial load (lungs) [5] [log] | reduction of activity (oxygen consumption) [6] [%] | MIC (M. tuberculosis Erdman; Mycobacterium tuberculosis, Erdman reference strain, read-out: MIC) [nM] | MIC (M. tuberculosis Erdman; Mycobacterium tuberculosis, strain Erdman, read-out: MIC) [ng/mL] | MIC (M. tuberculosis Erdman; strain Erdman) [ng/mL] | IC50 [7] [µM] | MIC ([8]; Mycobacterium tuberculosis, H37Rv reference strain, read-out: MIC) [nM] | MIC ([8]; Mycobacterium tuberculosis, strain H37Rv Pasteur, <1% of inoculum able to grow, read-out: MIC) [ng/mL] | MIC ([8]; strain H37Rv Pasteur, <1% of inoculum able to grow) [ng/mL] | IC50 [9] [µM]
1 | CCc1nc2ccc(Cl)cn2c1C(=O)NCc1ccc(N2CCC(c3ccc(OC(F)(F)F)cc3)CC2)cc1 [Q203] | > 50000 | ~ 2.5 μM | ~2 (≈ 1.11 ng/mL) | 2 ± 0.1 (≈ 1.11 ng/mL) | ~0.02 | ~0.02 | – | – | – | – | – | – | – | – | – | –
2 | COc1nc2ccc(Br)cc2cc1[C@@H](c1ccccc1)[C@@](O)(CCN(C)C)c1cccc2ccccc12 [bedaquiline, reference compound] | – | – | – | – | – | – | 4.6 | – | – | – | – | – | – | – | – | –
3 | CCc1nc2ccc(Cl)cn2c1C(=O)NCc1ccc(C2CC3(C2)CN(S(=O)(=O)C(F)(F)F)C3)cc1 [JNJ-2901] | – | – | – | 2.5 ± 0.1 (≈ 1.35 ng/mL) | – | – | – | 20 | > 16 | > 8 | >8 | 0.06 ± 0.026 | > 16 | > 8 | >8 | 0.089 ± 0.054

Source: publication PMC11964921 (npj Drug Discovery, 2025)
